pIC50: −log10 of the molar value.
Biological target: Glutamate receptor ionotropic, NMDA 2B (Homo sapiens, UniProt Q05586+Q13224)
Assay: Standard cell-based calcium flux assay: NMDA receptors are ion channels that are highly permeable to Ca2+ ions, rendering it possible to monitor NMDA receptor function using cell-based calcium flux assay. In this assay, co-agonists glutamate and glycine are added to cells heterologously expressing human GluN1/GluN2B NMDA receptors to initiate cellular Ca2+ influx. The time course of the changes in intracellular calcium is measured using a fluorescent dye and a FLIPR (Fluorometric Imaging Plate Reader) device.Twenty four hours before measurements, the expression of the NMDA receptors in the stable cell line is induced with Tet-On inducible system in the presence of a non-selective NMDA receptor blocker. On the day of the experiment, cell culture media is carefully washed and the cells are loaded with Calcium 5 Dye Kit (Molecular Devices) in dye loading buffer containing 137 mM NaCl, 4 mM KCl, 2 mM CaCl2, 0.5 mM MgCl2 (standard assay) or 1.5 mM MgCl2 (HTS assay), 10 mM HEPES and 5 mM D-glucose; pH 7.4. […]

Sequence of Glutamate receptor ionotropic, NMDA 2B (Q13224 whole entry, one chain of several): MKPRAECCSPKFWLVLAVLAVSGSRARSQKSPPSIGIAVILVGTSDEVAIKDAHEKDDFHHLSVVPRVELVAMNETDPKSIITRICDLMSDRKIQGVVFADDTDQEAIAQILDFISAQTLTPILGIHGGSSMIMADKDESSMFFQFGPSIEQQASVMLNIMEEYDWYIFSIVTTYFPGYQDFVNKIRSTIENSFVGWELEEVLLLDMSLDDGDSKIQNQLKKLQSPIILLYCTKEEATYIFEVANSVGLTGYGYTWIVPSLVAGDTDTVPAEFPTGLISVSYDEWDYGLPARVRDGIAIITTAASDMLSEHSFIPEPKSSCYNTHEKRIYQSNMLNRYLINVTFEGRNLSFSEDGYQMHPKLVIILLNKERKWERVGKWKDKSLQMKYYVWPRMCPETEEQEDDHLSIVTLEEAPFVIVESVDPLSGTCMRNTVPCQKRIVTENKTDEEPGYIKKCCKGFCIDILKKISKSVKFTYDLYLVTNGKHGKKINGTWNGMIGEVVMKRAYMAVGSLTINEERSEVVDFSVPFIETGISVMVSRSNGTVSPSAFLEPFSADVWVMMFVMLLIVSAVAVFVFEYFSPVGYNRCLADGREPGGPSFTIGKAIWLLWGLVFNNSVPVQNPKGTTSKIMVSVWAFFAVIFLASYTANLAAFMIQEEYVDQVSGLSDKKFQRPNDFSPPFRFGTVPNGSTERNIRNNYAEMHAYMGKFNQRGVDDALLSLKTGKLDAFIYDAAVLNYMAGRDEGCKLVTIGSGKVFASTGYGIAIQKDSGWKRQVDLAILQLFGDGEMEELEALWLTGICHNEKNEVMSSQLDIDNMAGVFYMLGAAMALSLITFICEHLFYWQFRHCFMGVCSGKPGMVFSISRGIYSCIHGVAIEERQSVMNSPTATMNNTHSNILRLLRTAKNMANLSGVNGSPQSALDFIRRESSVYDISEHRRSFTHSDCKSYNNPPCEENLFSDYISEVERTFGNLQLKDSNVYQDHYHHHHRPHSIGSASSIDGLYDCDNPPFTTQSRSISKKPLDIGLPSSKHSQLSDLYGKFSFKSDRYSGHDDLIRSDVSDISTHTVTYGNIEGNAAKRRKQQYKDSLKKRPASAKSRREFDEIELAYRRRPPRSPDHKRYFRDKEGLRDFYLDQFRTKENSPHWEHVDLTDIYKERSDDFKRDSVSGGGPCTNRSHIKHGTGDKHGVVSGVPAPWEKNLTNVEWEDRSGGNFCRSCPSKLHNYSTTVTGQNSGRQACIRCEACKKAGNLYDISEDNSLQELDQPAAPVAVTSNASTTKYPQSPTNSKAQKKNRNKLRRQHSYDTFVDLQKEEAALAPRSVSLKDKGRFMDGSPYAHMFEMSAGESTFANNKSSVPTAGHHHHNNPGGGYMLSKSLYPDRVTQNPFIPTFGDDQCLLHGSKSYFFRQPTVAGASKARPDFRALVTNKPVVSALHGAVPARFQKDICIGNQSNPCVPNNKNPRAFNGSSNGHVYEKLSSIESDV

Compound `Cn1c(=O)n(CC(=O)N2CCC2)c2cc(-c3cc(OCCF)cc(C(F)(F)F)c3)cnc21` has a pIC50 of 5.89.
